This passage reports DC50 and Dmax results from patent publication US11986532B2 (Arvinas Operations, Inc., priority 2021, dated 2024).

This experiment addresses T1, BCL6 (Homo sapiens, UniProt P41182).
T1 construct: endogenous in cells; host or cells: T47D breast cancer epithelial cells
The experiment can be described thus: Immunofluorescence protocol for high content imaging of BCL6 (degradation) in T47D cells, 3 days compound treatment. Particulars: T47D cells, 3 days compound treatment; for DC50: read-out: Mean DC50 (nM)* category; for Dmax: read-out: Mean Dmax (%)** category. The format is cell-based. The procedure, abridged:
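T47D cells in RPMI1640-10% FBS were treated with an 11-point 3-fold dilution series (final top 0.1 or 1 μM) for 3 days at 37° C. After PFA fixation and Triton permeabilization, cells were immunostained with rabbit anti-BCL6 (1:300, overnight 4° C), Alexa-488 secondary, CellMask-647 and Hoechst, then imaged at 10×, 4 fields/well.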

Usually DC50 stands for the concentration at which degradation of the target reaches its halfway point. The Dmax is the largest share of the target that was removed. Turning to `CNC(=O)COc1cc2cc(Nc3nc(N4CCC(CN5CCC6(CN(c7ccc8c(c7)C(=O)N(C7CCC(=O)NC7=O)C8=O)C6)C(F)(F)C5)CC4)ncc3Cl)ccc2n(C)c1=O` (stereo not drawn) [Compound 127, 2-{[6-({5-chloro-2-[4-({2-[2-(2,6-dioxopiperidin-3-yl)-1,3-dioxo-2,3-dihydro-1H-isoindol-5-yl]-5,5-difluoro-2,7-diazaspiro[3.5]nonan-7-yl}methyl)piperidin-1-yl]pyrimidin-4-yl}amino)-1-methyl-2-oxo-1,2-dihydroquinolin-3-yl]oxy}-N-methylacetamide], the DC50 was below 10 nM and the Dmax is below 50%.

For `CNC(=O)COc1cc2cc(Nc3nc(N4CCC(O[C@H]5C[C@H](N6CCC(c7cc(F)c8c(c7OC)CN(C7CCC(=O)NC7=O)C8=O)CC6)C5)CC4)ncc3Cl)ccc2n(C(C)C)c1=O` (stereo partly drawn) [Compound 128, 2-({6-[(5-chloro-2-{4-[(1r,3r)-3-{4-[2-(2,6-dioxopiperidin-3-yl)-7-fluoro-4-methoxy-1-oxo-2,3-dihydro-1H-isoindol-5-yl]piperidin-1-yl}cyclobutoxy]piperidin-1-yl}pyrimidin-4-yl)amino]-2-oxo-1-(propan-2-yl)-1,2-dihydroquinolin-3-yl}oxy)-N-methylacetamide], the DC50 is below 10 nM and the Dmax fell in the range of 50 to 70%.

Take `CNC(=O)COc1cc2cc(Nc3nc(N4CCC5(CCN(CC6(F)CCN(c7ccc(F)c8c7CN(C7CCC(=O)NC7=O)C8=O)CC6)CC5)CC4)ncc3Cl)ccc2n(C(C)C)c1=O` (stereo not drawn) [Compound 129, 2-{[6-({5-chloro-2-[9-({1-[2-(2,6-dioxopiperidin-3-yl)-7-fluoro-1-oxo-2,3-dihydro-1H-isoindol-4-yl]-4-fluoropiperidin-4-yl}methyl)-3,9-diazaspiro[5.5]undecan-3-yl]pyrimidin-4-yl}amino)-2-oxo-1-(propan-2-yl)-1,2-dihydroquinolin-3-yl]oxy}-N-methylacetamide]: the DC50 is below 10 nM and the Dmax lay within 50 to 70%.

As to `CNC(=O)COc1cc2cc(Nc3nc(N4CCC5(CCN(CC6(F)CCN(c7ccc(F)c8c7C(=O)N(C7CCC(=O)NC7=O)C8)CC6)CC5)CC4)ncc3Cl)ccc2n(C(C)C)c1=O` (stereo not drawn) [Compound 130, 2-{[6-({5-chloro-2-[9-({1-[2-(2,6-dioxopiperidin-3-yl)-7-fluoro-3-oxo-2,3-dihydro-1H-isoindol-4-yl]-4-fluoropiperidin-4-yl}methyl)-3,9-diazaspiro[5.5]undecan-3-yl]pyrimidin-4-yl}amino)-2-oxo-1-(propan-2-yl)-1,2-dihydroquinolin-3-yl]oxy}-N-methylacetamide], the DC50 is at least 100 nM and the Dmax was at least 70%.

For `CNC(=O)COc1cc2cc(Nc3nc(N4CCC(CN5CCC6(CC5)CN(c5ccc7c(c5)C(=O)N(C5CCC(=O)NC5=O)C7=O)C6(C)C)CC4)ncc3Cl)ccc2n(C(C)C)c1=O` (stereo not drawn) [Compound 133, 2-{[6-({5-chloro-2-[4-({2-[2-(2,6-dioxopiperidin-3-yl)-1,3-dioxo-2,3-dihydro-1H-isoindol-5-yl]-1,1-dimethyl-2,7-diazaspiro[3.5]nonan-7-yl}methyl)piperidin-1-yl]pyrimidin-4-yl}amino)-2-oxo-1-(propan-2-yl)-1,2-dihydroquinolin-3-yl]oxy}-N-methylacetamide], the DC50 is below 10 nM and the Dmax lay within 50 to 70%.

For `CNC(=O)COc1cc2cc(Nc3nc(N4CCC(CN5CCC6(CN(c7ccc8c(c7)C(=O)N(C7CCC(=O)NC7=O)C8=O)C6)C(F)C5)CC4)ncc3Cl)ccc2n(C(C)C)c1=O` (stereo not drawn) [Compound 134, 2-{[6-({5-chloro-2-[4-({2-[2-(2,6-dioxopiperidin-3-yl)-1,3-dioxo-2,3-dihydro-1H-isoindol-5-yl]-5-fluoro-2,7-diazaspiro[3.5]nonan-7-yl}methyl)piperidin-1-yl]pyrimidin-4-yl}amino)-2-oxo-1-(propan-2-yl)-1,2-dihydroquinolin-3-yl]oxy}-N-methylacetamide], the DC50 is below 10 nM and the greatest degradation seen (Dmax) was below 50%.

In the case of `CNC(=O)COc1cc2cc(Nc3nc(N4CCC(CN5CC6(CCN(c7ccc8c(c7)C(=O)N(C7CCC(=O)NC7=O)C8=O)CC6(F)F)C5)CC4)ncc3Cl)ccc2n(C(C)C)c1=O` (stereo not drawn) [Compound 135, 2-{[6-({5-chloro-2-[4-({7-[2-(2,6-dioxopiperidin-3-yl)-1,3-dioxo-2,3-dihydro-1H-isoindol-5-yl]-5,5-difluoro-2,7-diazaspiro[3.5]nonan-2-yl}methyl)piperidin-1-yl]pyrimidin-4-yl}amino)-2-oxo-1-(propan-2-yl)-1,2-dihydroquinolin-3-yl]oxy}-N-methylacetamide], the half-maximal degradation concentration (DC50) is below 10 nM and the Dmax was 50 to 70%.

Turning to `CNC(=O)COc1cc2cc(Nc3nc(N4CCC(CN5CC6(CCN(c7ccc8c(c7)CN(C7CCC(=O)NC7=O)C8=O)CC6(F)F)C5)CC4)ncc3Cl)ccc2n(C(C)C)c1=O` (stereo not drawn) [Compound 136, 2-{[6-({5-chloro-2-[4-({7-[2-(2,6-dioxopiperidin-3-yl)-1-oxo-2,3-dihydro-1H-isoindol-5-yl]-5,5-difluoro-2,7-diazaspiro[3.5]nonan-2-yl}methyl)piperidin-1-yl]pyrimidin-4-yl}amino)-2-oxo-1-(propan-2-yl)-1,2-dihydroquinolin-3-yl]oxy}-N-methylacetamide], the DC50 is below 10 nM and the Dmax was in the range of 50 to 70%.

`CNC(=O)COc1cc2cc(Nc3nc(N4CCC(O[C@H]5C[C@H](N6CCC(c7ccc8c(c7)C(=O)N(C7CCC(=O)NC7=O)C8=O)C(F)(F)C6)C5)CC4)ncc3Cl)ccc2n(C(C)C)c1=O` (stereo partly drawn) [Compound 137, 2-({6-[(5-chloro-2-{4-[(1r,3r)-3-{4-[2-(2,6-dioxopiperidin-3-yl)-1,3-dioxo-2,3-dihydro-1H-isoindol-5-yl]-3,3-difluoropiperidin-1-yl}cyclobutoxy]piperidin-1-yl}pyrimidin-4-yl)amino]-2-oxo-1-(propan-2-yl)-1,2-dihydroquinolin-3-yl}oxy)-N-methylacetamide]: the half-maximal degradation concentration (DC50) was at least 100 nM and the Dmax was at least 70%.

As to `CNC(=O)COc1cc2cc(Nc3nc(N4CCC(CN5CCC6(CCN(c7cc(F)cc8c7C(=O)N(C7CCC(=O)NC7=O)C8=O)C6)C5)CC4)ncc3Cl)ccc2n(C(C)C)c1=O` (stereo not drawn) [Compound 138, 2-{[6-({5-chloro-2-[4-({7-[2-(2,6-dioxopiperidin-3-yl)-6-fluoro-1,3-dioxo-2,3-dihydro-1H-isoindol-4-yl]-2,7-diazaspiro[4.4]nonan-2-yl}methyl)piperidin-1-yl]pyrimidin-4-yl}amino)-2-oxo-1-(propan-2-yl)-1,2-dihydroquinolin-3-yl]oxy}-N-methylacetamide], the DC50 is below 10 nM and the Dmax lay in the range of 50 to 70%.

As for `CNC(=O)COc1cc2cc(Nc3nc(N4CCC(CN5CCC6(CCN(c7c(F)ccc8c7C(=O)N(C7CCC(=O)NC7=O)C8=O)C6)C5)CC4)ncc3Cl)ccc2n(C(C)C)c1=O` (stereo not drawn) [Compound 139, 2-{[6-({5-chloro-2-[4-({7-[2-(2,6-dioxopiperidin-3-yl)-5-fluoro-1,3-dioxo-2,3-dihydro-1H-isoindol-4-yl]-2,7-diazaspiro[4.4]nonan-2-yl}methyl)piperidin-1-yl]pyrimidin-4-yl}amino)-2-oxo-1-(propan-2-yl)-1,2-dihydroquinolin-3-yl]oxy}-N-methylacetamide], the DC50 is below 10 nM and the Dmax lay in the range of 50 to 70%.

As for `CCn1c(=O)c(OCC(=O)NC)cc2cc(Nc3nc(N4CCC(O[C@H]5C[C@H](N6CCC(c7cccc8c7C(=O)N(C7CCC(=O)NC7=O)C8=O)CC6)C5)CC4)ncc3Cl)ccc21` (stereo partly drawn) [Compound 140, 2-({6-[(5-chloro-2-{4-[(1r,3r)-3-{4-[2-(2,6-dioxopiperidin-3-yl)-1,3-dioxo-2,3-dihydro-1H-isoindol-4-yl]piperidin-1-yl}cyclobutoxy]piperidin-1-yl}pyrimidin-4-yl)amino]-1-ethyl-2-oxo-1,2-dihydroquinolin-3-yl}oxy)-N-methylacetamide], the DC50 is 50 to 100 nM and the Dmax is at least 70%.

Take `CNC(=O)COc1cc2cc(Nc3nc(N4CCC[C@H](COc5cccc6c5C(=O)N(C5CCC(=O)NC5=O)C6=O)C4)ncc3Cl)ccc2n(CCN(C)C)c1=O` (stereo partly drawn) [Compound 141, 2-{[6-({5-chloro-2-[(3S)-3-({[2-(2,6-dioxopiperidin-3-yl)-1,3-dioxo-2,3-dihydro-1H-isoindol-4-yl]oxy}methyl)piperidin-1-yl]pyrimidin-4-yl}amino)-1-[2-(dimethylamino)ethyl]-2-oxo-1,2-dihydroquinolin-3-yl]oxy}-N-methylacetamide]: the DC50 is at least 100 nM.

In the case of `CNC(=O)COc1cc2cc(Nc3nc(N4CCOC5(CN(CC6CCN(c7ccc8c(c7)C(=O)N(C7CCC(=O)NC7=O)C8=O)CC6)C5)C4)ncc3Cl)ccc2n(C(C)C)c1=O` (stereo not drawn) [Compound 142, 2-{[6-({5-chloro-2-[2-({1-[2-(2,6-dioxopiperidin-3-yl)-1,3-dioxo-2,3-dihydro-1H-isoindol-5-yl]piperidin-4-yl}methyl)-5-oxa-2,8-diazaspiro[3.5]nonan-8-yl]pyrimidin-4-yl}amino)-2-oxo-1-(propan-2-yl)-1,2-dihydroquinolin-3-yl]oxy}-N-methylacetamide], the DC50 is at least 100 nM.

Consider `CNC(=O)COc1cc2cc(Nc3nc(N4CCOC5(CN(CC6CCN(c7cccc8c7C(=O)N(C7CCC(=O)NC7=O)C8=O)CC6)C5)C4)ncc3Cl)ccc2n(C(C)C)c1=O` (stereo not drawn) [Compound 143, 2-{[6-({5-chloro-2-[2-({1-[2-(2,6-dioxopiperidin-3-yl)-1,3-dioxo-2,3-dihydro-1H-isoindol-4-yl]piperidin-4-yl}methyl)-5-oxa-2,8-diazaspiro[3.5]nonan-8-yl]pyrimidin-4-yl}amino)-2-oxo-1-(propan-2-yl)-1,2-dihydroquinolin-3-yl]oxy}-N-methylacetamide], for which the DC50 was at least 100 nM.
